Patent publication US9439976B2, “Compositions and methods for using cathepsin E cleavable substrates” (The Methodist Hospital System, priority 2013, dated 2016)
Where a SMILES comes first, the peptide text is derived from it. The star is where a group is joined. X1 = O=C(O)CCC(=O)CN*

Experiments:
MPanc96-CTSE cells [1] = format: cell-based; conditions: human
Description: To determine the number of viable cells after light treatment, a homogeneous colorimetric method, the MTS Cell cytotoxicity assay (Cell Titer 96® Aqueous, Promega, Madison, Wis.) was used. MPanc96-CTSE and MPanc96-FG30 (2×10^4) cells were incubated with various concentrations (0.1, 0.5, 1, and 5 μM) of the 5-ALA prodrug for 30 minutes, followed by treatment with a range of light doses (2.5, 5, 10, and 15 J/cm^2) and incubated overnight at 37° C. and 5% CO2 in 96-well plates. Cells treated only with light or the 5-ALA prodrug were used as negative controls. […] The formation of colored formazan was measured directly in 96-well assay plates at 490 nm absorbance without additional processing. […] After PDT, MPanc96-CTSE cells were washed with PBS buffer, treated with 1 μL YO-PRO-1 and PI stock solution per milliliter medium and incubated on ice for 25 minutes, followed by fluorescence imaging using an inverted epifluorescence microscope. […]
To quantitate cell viability upon photodynamic treatment with the 5-ALA prodrug, PDAC cells were subjected to homogeneous, colorimetric MTS cytotoxicity assay. […] After incubating PDAC cells with the tetrazolium compound, living PDAC cells in culture were quantified directly by measuring the absorbance of the produced formazan product at 490 nm.

MPanc96-CTSE cells [2] = assay: Cellular release of 5-ALA, PpIX fluorescence imaging, Cath E-high cells; format: cell-based, human; conditions: unfixed MPanc96-CTSE cells, 0.5 μM, 37° C.
Description: Mpanc96-CTSE and Mpanc96-FG30 cells (1.2×10^4) were treated in 96-well plates with various concentrations (0.1, 0.5, 1, and 5 μM in 100 μL) of 5-ALA prodrug, incubated for 30 minutes at 37° C., and washed several times with PBS. Fluorescence images of the cells were acquired using an inverted epifluorescence microscope and a TRITC (tetramethyl rhodamine isothiocyanate) filter (λex=557 nm and λem=576 nm). Free 5-ALA and untreated cells were included as controls. The possible light damage done in the absence of photosensitizer was evaluated by irradiating Cath E-positive Mpanc96-CTSE cells with various doses (2.5, 5, 10, 15, and 18 J/cm^2) of light using a diode laser system (652 nm; B&W TEK, Newark, Del.). Phototoxicity of the 5-ALA prodrug was assessed by incubating Mpanc96-CTSE and Mpanc96-FG30 cells in 96-well plates with 0.1 μM 5-ALA prodrug for 30 minutes at 37° C. The cells were washed several times with PBS, the medium was replaced with growth medium, and the cells were treated with a single dose of 10 J/cm2. After PDT, the treated cells and controls were incubated overnight followed by imaging to detect changes in cell morphology.

[3] = test system: PDAC (p53 conditional deletion/LSL-KrasG12D/Pdx1-Cre); assay: In vivo photodynamic therapy, TUNEL staining of PDAC pancreas in genetically engineered mice; design: species or system mouse; conditions: mice with PDAC, 1 mg 5-ALA equivalent/kg i.v., 10 J/cm^2 light at 652 nm 1 hour after injection, tissue 24 hours later
Description: All animal studies were performed in compliance with the approved animal protocols and guidelines of Institutional Animal Care and Use Committee of University of Texas MD Anderson Cancer Center. […] Littermates without PDAC served as controls. LSL-KRasG12D, p53-floxed, and Pdx-1-Cre genetic mice were obtained from the Mouse Models for Human Cancer Consortium Repository (Rockville, Md.). Mice were divided into three groups of five transgenic mice with PDAC tumors and three normal littermate controls. Mice were injected with a single dose of saline, free 5-ALA, or the 5-ALA prodrug (1 mg 5-ALA equivalent/kg, 50 μL) intravenously through the tail vein using a 30 gauge needle. Mice were incubated for 60 minutes in a full metabolically active environment and anesthetized by intraperitoneal injection of sodium pentobarbital, at a dose of 50-90 mg/kg diluted to 6 mg/ml. The pancreas was exposed through a left abdominal incision (1 cm, laparotomy) and treated with a 10-J/cm^2 dose of light using a diode laser (652 nm) and incidence fluence rate of 50 mW/cm^2 for 3.5 minutes. After PDT, the pancreas was carefully returned to the peritoneal cavity and the abdomen was closed. One day after light treatment, animals were sacrificed and the pancreases were harvested for subsequent evaluation. […]

SMILES	Cell viability (MTS) (MPanc96-CTSE cells [1])	PpIX fluorescence signal in cells (TRITC channel) (MPanc96-CTSE cells [2])	Apoptosis in PDAC tissue sections (TUNEL) [3]
CC(C)C[C@H](NC(=O)[C@H](CO)NC(=O)[C@H](Cc1ccccc1)NC(=O)CNC(=O)[C@H](C)NC(=O)[C@H](CCC(N)=O)NC(=O)[C@@H](N)CCCNC(=N)N)C(=O)NCC(=O)CCC(=O)O [5-ALA prodrug, H-Arg-Gln-Ala-Gly-Phe-Ser-Leu-5-ALA-OH] (H-RQAGFSL-X1)	approximately 20%		
NCC(=O)CCC(=O)O [free 5-ALA, 5-aminolevulinic acid]		comparable	multiple apoptotic cells
